# Measured values from patent US20120083522A1, “MODULATION OF INFLAMMATORY RESPONSES BY FACTOR XI” (Isis Pharmaceuitcals, inc., priority 2009, published 2012).
# In the oligonucleotide strings, read from the 5' end, every base follows the letter of its sugar. An asterisk marks phosphorothioate; unmarked linkages are phosphodiester. Other units and linkages are bracketed, terminal groups are in braces. A string of capitals states the bases alone. e = 2'-O-(2-methoxyethyl) (MOE); [5mC] = 5-methylcytosine; d = 2'-deoxy (DNA)
# What was measured:
# human Factor XI mRNA [1] = assay: Dose-dependent inhibition in HepG2 cells, lipofectin (Example 5); assay type: cell-based; settings: 16 hours
# Method: Cells were plated at a density of 10,000 cells per well and transfected using lipofectin reagent with 2.34 nM, 4.69 nM, 9.375 nM, 18.75 nM, 37.5 nM, and 75 nM concentrations of antisense oligonucleotide, as specified in Table 11. After a treatment period of approximately 16 hours, RNA was isolated from the cells and human Factor XI mRNA levels were measured by quantitative real-time PCR. Human Factor XI primer probe set RTS 2966 was used to measure mRNA levels. Factor XI mRNA levels were adjusted according to total RNA content, as measured by RIBOGREEN®. Results are presented as percent inhibition of human Factor XI, relative to untreated control cells.
# human Factor XI mRNA [2] = assay: Dose-dependent inhibition in HepG2 cells, electroporation (Example 5); assay type: cell-based; settings: approx. 16 h, relative to untreated control cells
# Method: The gapmers were also transfected via electroporation and their dose dependent inhibition of human Factor XI mRNA was measured. Cells were plated at a density of 20,000 cells per well and transfected via electroporation with 625 nM, 1250 nM, 2500 nM, 5,000 nM, 10,000 nM, and 20,000 nM concentrations of antisense oligonucleotide, as specified in Table 12. After a treatment period of approximately 16 hours, RNA was isolated from the cells and human Factor XI mRNA levels were measured by quantitative real-time PCR. Human Factor XI primer probe set RTS 2966 was used to measure mRNA levels. Factor XI mRNA levels were adjusted according to total RNA content, as measured by RIBOGREEN®. Results are presented as percent inhibition of human Factor XI, relative to untreated control cells.
# human Factor XI mRNA [3] = assay: Dose-dependent inhibition in HepB3 cells, electroporation (Example 7); assay type: cell-based; settings: approx. 16 h
# Method: The gapmers were also transfected via electroporation and their dose dependent inhibition of human Factor XI mRNA was measured. Cells were plated at a density of 20,000 cells per well and transfected via electroporation with 41.15 nM, 123.457 nM, 370.37 nM, 1111.11 nM, 3333.33 nM, and 10,000 nM concentrations of antisense oligonucleotide, as specified in Table 15. After a treatment period of approximately 16 hours, RNA was isolated from the cells and human Factor XI mRNA levels were measured by quantitative real-time PCR. Human Factor XI primer probe set RTS 2966 was used to measure mRNA levels. Factor XI mRNA levels were adjusted according to total RNA content, as measured by RIBOGREEN®. Results are presented as percent inhibition of human Factor XI, relative to untreated control cells.
# [4] = Tolerability in Sprague-Dawley rats: kidney function (Example 19); assay type: in vivo; settings: Sprague Dawley rats; for urine protein/creatinine ratio, After: after 50 mg/kg s.c. twice per week for 6 weeks; for urine protein/creatinine ratio, Before: before antisense oligonucleotide treatment
# From the text: Urine samples were taken before the start of treatment.
# human Factor XI mRNA [5] = assay: Antisense inhibition in HepG2 cells by microwalk gapmers, 8,000 nM, electroporation (Example 14); assay type: cell-based; settings: HepG2 cells, 8,000 nM
# Procedure, shortened: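 HepG2 cells electroporated with 8,000 nM 2′-MOE phosphorothioate gapmer (5-10-5, 5-8-5 or 6-8-6). Factor XI mRNA measured after ~24 h by qRT-PCR, normalised to RIBOGREEN total RNA. Reported as percent inhibition versus untreated cells.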
Substance,"percent inhibition of human Factor XI mRNA, relative to untreated control cells (human Factor XI mRNA [1]; 2.34 nM) [%]","percent inhibition of human Factor XI mRNA, relative to untreated control cells (human Factor XI mRNA [1]; 4.69 nM) [%]","percent inhibition of human Factor XI mRNA, relative to untreated control cells (human Factor XI mRNA [1]; 9.375 nM) [%]","percent inhibition of human Factor XI mRNA, relative to untreated control cells (human Factor XI mRNA [1]; 18.75 nM) [%]","percent inhibition of human Factor XI mRNA, relative to untreated control cells (human Factor XI mRNA [1]; 37.5 nM) [%]","percent inhibition of human Factor XI mRNA, relative to untreated control cells (human Factor XI mRNA [1]; 75 nM) [%]",percent inhibition of human Factor XI mRNA (human Factor XI mRNA [2]; 625 nM) [%],percent inhibition of human Factor XI mRNA (human Factor XI mRNA [2]; 1250 nM) [%],percent inhibition of human Factor XI mRNA (human Factor XI mRNA [2]; 2500 nM) [%],percent inhibition of human Factor XI mRNA (human Factor XI mRNA [2]; 5000 nM) [%],percent inhibition of human Factor XI mRNA (human Factor XI mRNA [2]; 10000 nM) [%],percent inhibition of human Factor XI mRNA (human Factor XI mRNA [2]; 20000 nM) [%],percent inhibition of human Factor XI mRNA (human Factor XI mRNA [3]; 41.15 nM) [%],percent inhibition of human Factor XI mRNA (human Factor XI mRNA [3]; 123.457 nM) [%],percent inhibition of human Factor XI mRNA (human Factor XI mRNA [3]; 370.37 nM) [%],percent inhibition of human Factor XI mRNA (human Factor XI mRNA [3]; 1111.11 nM) [%],percent inhibition of human Factor XI mRNA (human Factor XI mRNA [3]; 3333.33 nM) [%],percent inhibition of human Factor XI mRNA (human Factor XI mRNA [3]; 10000 nM) [%],"urine protein/creatinine ratio, After [4]","urine protein/creatinine ratio, Before [4]",also measured
"416838 (antisense GCAACCGGGATGATGAGTGC; 5-10-5 gapmer, wing sugar chemistry not given here, further chemistry not given here) [compound 416838]",21,37,50,63,74,83,66,79,87,90,93,96,12,9,28,40,77,88,3.7,1.2,–
"416925 (antisense GGTGCACAGTTTCTGGCAGG; 3-14-3 chimeric gapmer, wing sugar chemistry not given here, further chemistry not given here) [compound 416925]",24,34,45,56,67,72,64,80,88,91,95,96,27,39,50,73,88,96,4.3,1.0,–
"416999 (antisense GCACAGTTTCTGGCAGGCCT; 2-13-5 gapmer, wing sugar chemistry not given here, further chemistry not given here) [compound 416999]",10,26,42,62,72,80,61,82,89,94,94,97,31,45,62,78,94,97,9.1,1.3,–
"417002 (antisense GGTGCACAGTTTCTGGCAGG; 2-13-5 gapmer, wing sugar chemistry not given here, further chemistry not given here) [compound 417002]",17,26,49,61,81,84,59,72,86,90,94,96,19,0,31,47,86,93,2.4,1.0,–
"417003 (antisense TGGTGCACAGTTTCTGGCAG; 2-13-5 gapmer, wing sugar chemistry not given here, further chemistry not given here) [compound 417003]",6,29,48,64,73,82,60,74,86,90,95,95,31,0,15,43,84,92,4.8,0.9,–
445522 (antisense eG*e[5mC]*eA*e[5mC]*eA*dG*dT*dT*dT*d[5mC]*dT*dG*dG*e[5mC]*eA*eG*eG*e[5mC]) [compound 445522],–,–,–,–,–,–,–,–,–,–,–,–,–,–,–,–,–,–,–,–,Percent inhibition of human Factor XI mRNA levels (human Factor XI mRNA [5]): 91%
445531 (antisense eG*eG*e[5mC]*eA*eT*dT*dG*dG*dT*dG*d[5mC]*dA*d[5mC]*eA*eG*eT*eT*eT) [compound 445531],–,–,–,–,–,–,–,–,–,–,–,–,–,–,–,–,–,–,–,–,Percent inhibition of human Factor XI mRNA levels (human Factor XI mRNA [5]): 90%
